From US20170135996A1, “PHARMACEUTICAL DEPOT FOR N-{5-[(CYCLOPROPYLAMINO)CARBONYL]-2-METHYLPHENYL)-3-FLUORO-4-(PYRIDIN-2-YLMETHOXY)BENZAMIDE” (AstraZeneca AB, priority 2008, published 2017)

Columns and labels:
[1] = Hydrolytic stability of PA in the acidic microclimate of the degrading polymer; format: physicochemical; details: acidic microclimate created upon degradation of the polymer
[2] = Systemic pharmacokinetic parameters in the rat; format: in vivo; parameters: systemic Vdss: unit not given here
[3] = test system: rat mono-iodoacetate (MIA) model of joint pain; assay: Rat mono-iodoacetate (MIA) model of joint pain, weight bearing asymmetry; format: in vivo; details: unformulated, 29 μg/ml (69 μM) in 5 μl intra-articular, 3 days post MIA
Experimental: All studies were carried out in a rat mono-iodoacetate (MIA) model of joint pain as a screen for analgesia of pain driven by joint inflammation and destruction (see Ivanavicius et al., 2007 Pain 128 p272). The MIA model induces an early synovitis (day 3) followed by progressive loss of articular cartilage, and subchondral bone pathology by day 14.
N-{5-[(cyclopropylamino)carbonyl]-2-methylphenyl}-3-fluoro-4-(pyridin-2-ylmethoxy)benzamide was formulated into PLGA microspheres (50:50 PLGA as in Example 1) and tested in the MIA model. Rats were injected intra-articularly with MIA on day 0. Three days post MIA (to allow disease to progress) animals were injected intra-articularly with formulated N-{5-[(cyclopropylamino)carbonyl]-2-methylphenyl}-3-fluoro-4-(pyridin-2-ylmethoxy)benzamide in 50:50 PLGA (200 μg/30 μl) or with microsphere formulation ([…]).
A dose of 29 μg/ml (69 μM) of N-{5-[(cyclopropylamino)carbonyl]-2-methylphenyl}-3-fluoro-4-(pyridin-2-ylmethoxy)benzamide was delivered in a 5 μl injection volume to give a Cmin concentration of 1 μM at 1.5 hours. The dosing was carried out 3 days post MIA at the same time point that formulated N-{5-[(cyclopropylamino)carbonyl]-2-methylphenyl}-3-fluoro-4-(pyridin-2-ylmethoxy)benzamide as the PA were dosed. […]

[4] = Synovial fluid pharmacokinetics after intra-articular injection of unformulated PA; format: in vivo; details: rat, 15 ng in 5 μl intra-articular
Experimental: Unformulated N-{5-[(cyclopropylamino)carbonyl]-2-methylphenyl}-3-fluoro-4-(pyridin-2-ylmethoxy)benzamide was intra-articularly injected (15 ng in 5 μl injection in PBS) to rats and synovial fluid concentrations were determined at 15, 30 and 60 minutes post dose. The synovial fluid from the rat knee joint was sampled using a knee wash methodology. The knee was exposed and a transverse cut made to the patellar tendon proximal to the tibia. The knee cavity was opened up by dissection, and the knee lavaged between the tibial and femoral condyles with 3×25 μl PBS using an eppendorf pipette.

hydrolytic stability [1]: hydrolytically stable
systemic Vdss [2]: 1.71 kg⁻¹
clearance ([2]; in vivo, read-out: systemic Cl): 14 mL/min/kg
Clearance (Cl) [4]: 61 µL/h
Volume of distribution (Vdss) [4]: 9 µL
half-life ([4]; read-out: Half-life (t1/2) (converted)): 12 min
SMILES: Cc1ccc(C(=O)NC2CC2)cc1NC(=O)c1ccc(OCc2ccccn2)c(F)c1 [PA, N-{5-[(cyclopropylamino)carbonyl]-2-methylphenyl}-3-fluoro-4-(pyridin-2-ylmethoxy)benzamide]
efficacy in MIA model (% weight distribution) [3]: no efficacy
